Measured values as given in patent US10375962B2, “Heterocycle derivatives as pesticides” (BAYER CROPSCIENCE AKTIENGESELLSCHAFT, priority 2016, dated 2019).
Where two headings read alike, the source gives them in different places.

How the values were obtained:
[1] = log P by HPLC on a reversed-phase column (C 18), EEC Directive 79/831 Annex V.A8; format: physicochemical; settings: for chromatographic logP: reversed-phase HPLC column (C 18)
From the text: Called log P (HCOOH) in the table.
Called log P (neutral) in the table.

[2] = tested on: green peach aphid (Myzus persicae); experiment: Myzus persicae - spray test (Chinese cabbage leaf discs); format: in vivo; settings: after 5 days
Method: Solvent: 78 parts by weight of acetone • • 1.5 parts by weight of dimethylformamide Emulsifier: alkylaryl polyglycol ether
(§1) To produce a suitable active compound formulation, 1 part by weight of active compound is dissolved with the stated parts by weight of solvent and made up with water containing an emulsifier concentration of 1000 ppm until the desired concentration is attained. To produce further test concentrations, the formulation is diluted with emulsifier-containing water.
Discs of Chinese cabbage leaves (Brassica pekinensis) infested by all stages of the green peach aphid (Myzus persicae) are sprayed with an active compound formulation of the desired concentration.
After 5 days, the efficacy in % is determined. 100% means that all the aphids have been killed and 0% means that none of the aphids have been killed.

[3] = tested on: caterpillars of the armyworm (Spodoptera frugiperda); experiment: Spodoptera frugiperda - spray test; format: in vivo; settings: maize leaf discs, after 7 days
Method: Solvent: 78.0 parts by weight of acetone • • 1.5 parts by weight of dimethylformamide Emulsifier: alkylaryl polyglycol ether […] To produce further test concentrations, the formulation is diluted with emulsifier-containing water. Leaf discs of maize (Zea mays) are sprayed with an active compound preparation of the desired concentration and, after drying, populated with caterpillars of the armyworm (Spodoptera frugiperda).

[4] = tested on: larvae of the mustard beetle (Phaedon cochleariae); experiment: Phaedon cochleariae - spray test; format: in vivo; settings: after 7 days
Method: Solvent: 78.0 parts by weight of acetone • • 1.5 parts by weight of dimethylformamide
Emulsifier: alkylaryl polyglycol ether
as §1
Discs of Chinese cabbage leaves (Brassica pekinensis) are sprayed with an active compound formulation of the desired concentration and, after drying, populated with larvae of the mustard beetle (Phaedon cochleariae).
After 7 days, the efficacy in % is determined. 100% means that all the beetle larvae have been killed and 0% means that none of the beetle larvae have been killed.

[5] = tested on: unfed adult cat fleas (Ctenocephalides felis); experiment: Ctenocephalides felis - oral test; format: in vivo; settings: application rate 100 ppm in citrated cattle blood; after 2 days
Method: (§2) Solvent: dimethyl sulphoxide
For the purpose of production of a suitable active compound formulation, 10 mg of active compound are mixed with 0.5 ml of dimethyl sulphoxide. Dilution with citrated cattle blood gives the desired concentration.
About 20 unfed adult cat fleas (Ctenocephalides felis) are placed into a chamber which is closed at the top and bottom with gauze. A metal cylinder whose bottom end is closed with parafilm is placed onto the chamber. The cylinder contains the blood/active compound formulation, which can be imbibed by the fleas through the parafilm membrane.
After 2 days, the kill in % is determined. 100% means that all of the fleas have been killed; 0% means that none of the fleas have been killed.

[6] = tested on: L1 larvae of the Australian sheep blowfly (Lucilia cuprina); experiment: Lucilia cuprina test; format: in vivo; settings: application rate 100 ppm; after 2 days
Method: as §2
To produce a suitable active compound formulation, 10 mg of active compound are mixed with 0.5 ml of dimethyl sulphoxide, and the concentrate is diluted with water to the desired concentration.
About 20 L1 larvae of the Australian sheep blowfly (Lucilia cuprina) are transferred into a test vessel containing minced horsemeat and the active compound formulation of the desired concentration.
After 2 days, the kill in % is determined. 100% means that all the larvae have been killed; 0% means that no larvae have been killed.

[7] = acidic range, pH 2.7, 0.1% aqueous formic acid/acetonitrile, 55° C.
[8] = neutral range, pH 7.8, 0.001 molar aqueous ammonium hydrogencarbonate/acetonitrile, 55° C.

SMILES | LOGP_HCOOH (log P (HCOOH)) ([1]; pH 2.7) | LOGP_NEUTRAL (log P (neutral)) ([1]; pH 7.8) | efficacy ([4]; application rate 100 g/ha) [%] | efficacy ([4]; application rate 500 g/ha) [%] | also measured
CCS(=O)(=O)c1ccc(-n2c(=O)oc3ccccc32)nc1-c1nc2cc(C(F)(F)F)ncc2n1C [Example I-41] |  |  |  |  | LOGP_HCOOH (log P (HCOOH)) [1, 7]: 3.25; LOGP_NEUTRAL (log P (neutral)) [1, 8]: 3.26
CCS(=O)(=O)c1ccc(-n2nnc3ccc(Cl)nc32)nc1-c1nc2cc(C(F)(F)F)ncc2n1C [Example I-37] | 2.96 | 3.00 |  |  | efficacy ([2]; application rate 100 g/ha): 90%
CCS(=O)(=O)c1ccc(-c2cn(C)c3ccccc23)nc1-c1nc2cc(C(F)(F)F)ncc2n1C [Example I-1, 2-[3-(Ethylsulphonyl)-6-(1-methyl-1H-indol-3-yl)pyridin-2-yl]-3-methyl-6-(trifluoromethyl)-3H-imidazo[4,5-c]pyridine] |  |  |  |  | chromatographic logP ([1]; acidic range, pH 2.7, 0.1% aqueous formic acid/acetonitrile, 55° C., read-out: LOGP_HCOOH (log P (HCOOH))): 3.55; chromatographic logP ([1]; neutral range, pH 7.8, 0.001 molar aqueous ammonium hydrogencarbonate/acetonitrile, 55° C., read-out: LOGP_NEUTRAL (log P (neutral))): 3.45
CCS(=O)(=O)c1ccc(-n2ncc3ccncc32)nc1-c1nc2cc(C(F)(F)F)ncc2n1C [Example I-7] |  |  | 100 | 100 | 
CCS(=O)(=O)c1ccc(-n2ccc3ncccc32)nc1-c1nc2cc(C(F)(F)F)ncc2n1C [Example I-20] |  |  |  |  | LOGP_HCOOH (log P (HCOOH)) [1, 7]: 1.75; LOGP_NEUTRAL (log P (neutral)) [1, 8]: 2.47
CCS(=O)(=O)c1ccc(-n2cccc3oc(=O)nc2-3)nc1-c1nc2cc(C(F)(F)F)ncc2n1C [Example I-51] | 2.09 | 2.08 |  |  | 
CCS(=O)(=O)c1ccc(N2C(=O)c3ccccc3C2=O)nc1-c1nc2cc(C(F)(F)F)ncc2n1C [Example I-40] | 2.92 | 2.96 | 100 | 100 | 
CCS(=O)(=O)c1ccc(-n2ccc3cc(Cl)ccc32)nc1-c1nc2cc(C(F)(F)F)ncc2n1C [Example I-25] |  |  |  |  | LOGP_HCOOH (log P (HCOOH)) [1, 7]: 4.10; LOGP_NEUTRAL (log P (neutral)) [1, 8]: 4.09
CCS(=O)(=O)c1ccc(-n2cnc3ccc(Cl)nc32)nc1-c1nc2cc(C(F)(F)F)ncc2n1C [Example I-33] | 3.25 | 3.20 | 100 | 100 | efficacy ([2]; application rate 500 g/ha): 90%; efficacy ([3]; application rate 100 g/ha): 100%; efficacy ([3]; application rate 500 g/ha): 100%

Now from value to compound, other results behind:

LOGP_HCOOH (log P (HCOOH)) ([1]; pH 2.7) | LOGP_NEUTRAL (log P (neutral)) ([1]; pH 7.8) | SMILES | efficacy ([4]; application rate 100 g/ha) [%] | efficacy ([4]; application rate 500 g/ha) [%] | also measured
2.71 | 2.65 | CCS(=O)(=O)c1ccc(-c2ccc3cn(C)nc3c2)nc1-c1nc2cc(C(F)(F)F)ncc2n1C [Example I-14] |  |  | efficacy ([2]; application rate 500 g/ha): 70%; efficacy ([3]; application rate 100 g/ha): 100%; efficacy ([3]; application rate 500 g/ha): 100%
2.51 | 2.69 | CCS(=O)(=O)c1ccc(-n2ccc3nccc(Cl)c32)nc1-c1nc2cc(C(F)(F)F)ncc2n1C [Example I-19] | 100 | 100 | efficacy ([2]; application rate 100 g/ha): 90%; efficacy ([2]; application rate 500 g/ha): 70%
2.73 | 2.67 | CCS(=O)(=O)c1ccc(-c2cccc3nn(C)cc23)nc1-c1nc2cc(C(F)(F)F)ncc2n1C [Example I-16] |  | 83 | 
2.46 | 2.45 | CC[S+]([O-])c1ccc(-n2cc3cccnc3n2)nc1-c1nc2cc(C(F)(F)F)ncc2n1C (stereo not drawn) [Example I-13] |  |  | 
3.18 | 3.08 | CCS(=O)(=O)c1ccc(-c2cc3cc(C#N)ccc3[nH]2)nc1-c1nc2cc(C(F)(F)F)ncc2n1C [Example I-3] | 100 | 100 | efficacy (kill) [5]: 95%; efficacy (kill) [6]: 100%; efficacy ([3]; application rate 100 g/ha): 100%; efficacy ([3]; application rate 500 g/ha): 83%
3.76 | 3.74 | CCS(=O)(=O)c1ccc(-n2ccc3cccnc32)nc1-c1nc2cc(C(F)(F)F)ncc2n1C [Example I-29] |  |  | efficacy (kill) [6]: 100%; efficacy ([3]; application rate 100 g/ha): 100%; efficacy ([3]; application rate 500 g/ha): 100%
2.26 | 2.30 | CCS(=O)(=O)c1ccc(N2Cc3cccnc3C2=O)nc1-c1nc2cc(C(F)(F)F)ncc2n1C [Example I-46] |  |  | 
